Key:
[1] = Stability in buffer solutions pH 2 to pH 8 at 25° C.; format: physicochemical
Protocol: (§1) Stability in buffer solutions pH 2 to pH 8 at 25° C., and in bio-relevant media (SGF pH 1.6, Fasted SIF pH 6.5 and Fed SIF pH 5.0) at 37° C., during 24 hours is monitored. The samples are analysed by LC/MS.
Buffer Solutions and Physiologically Relevant Media Used in Stability Assay:
LC Conditions: Instrument HP1100
Column: Waters XBridge C18, 2.1×50 mm, 3.5 μm
Guard column: Waters XBridge C18, 2.1×10 mm, 3.5 μm
• A) 0.1% HCOOH/H2O • B) 0.1% HCOOH/CH3CN Gradient Timetable: […]
(§2) Flow: 0.3 mL/min Column temp.: 25° C. Sample temp.: 25° C. (for stability assay in buffer solutions) • 37° C. (for stability assay in bio-relevant media) Injector volume: 3 μL (without injection program) MS Conditions: Instrument HP MS API-ES, positive ion mode Mass Range: 150-1500 Fragmentor: 100 Gain: 1.0 Treshold: 150 Step size: 0.20 Gas Temperature: 350° C. Drying Gas Flow: 13 L/min Nebulizer Pressure: 35 psig Capillary Voltage Positive 4000 V • Negative 4000 V Sample Preparation: a) For Stability Assay in Buffer Solutions
Compounds are dissolved in CH3CN to produce a 1 mg/mL stock solution. The stock solution is diluted to a concentration of 0.2 mg/mL (1 mL solution in 4 mL buffer) with appropriate buffer to produce a working solution.
Each solution at each pH is then dispatched into vials that are sealed and stored at room temperature in order to be analyzed at the proper time point. Before analysis, pH values of prepared sample solutions are checked and adjusted if neccessary.

[2] = Stability in bio-relevant media (SGF, Fasted SIF, Fed SIF) at 37° C.; format: physicochemical
Protocol: as §1
SGF (Simulated Gastric Fluid) pH 1.6
Fasted SIF (Simulated Intestinal Fluid) pH 6.5
Fed SIF (Simulated Intestinal Fluid) pH 5.0
as §2
b) For Stability Assay in Bio-Relevat Media
b1) For SGF Media pH 1.6 Testing:
Compounds are dissolved in SGF media pH 1.6 to give 0.2 mg/mL solution in case of compounds 1 and 2, and to give 0.1 mg/mL solution in case of compound 3. Solutions are then stored in a water bath at 37° C. and removed at the proper time point for LC/MS analysis. Before analysis, pH values of prepared sample solutions are checked and adjusted if necessary.
b2) For Fasted SIF Media pH 6.5 Testing:
(§3) Compounds are dissolved in Fasted SIF media pH 6.5 to give 2 mg/mL solution. Solutions are then dispatched into vials that are stored in a water bath at 37° C. and removed at the proper time point and diluted 10 times with CH3CN for LC/MS analysis. Before analysis, pH values of prepared sample solutions are checked and adjusted if necessary.
b3) For Fed SIF Media pH 5.0 Testing:
as §3, with “Fed” for “Fasted”, “5.0” for “6.5”, “40” for “10”

CC[C@H]1OC(=O)[C@H](C)[C@@H](O[C@H]2C[C@@](C)(OC)[C@@H](OC(=O)CCN(CC)CC)[C@H](C)O2)[C@H](C)[C@@H](O[C@@H]2O[C@H](C)C[C@H](NC)[C@H]2O)[C@](C)(OC)C[C@@H](C)C(=O)N[C@H](C)[C@@H](O)[C@]1(C)O [Example 2, 3′-N-Demethyl-4″-O-(3-diethylaminopropionoyl)-6-O-methyl-9a-aza-9a-homoerythromycin A]
Percentage (Area %) of the compound observed in buffers ([1]; pH 6, 25° C., 20 h): 98.2 Area % | Percentage (Area %) of the compound observed in buffers ([1]; pH 6, 25° C., 22 h): 98.2 Area % | Percentage (Area %) of the compound observed in buffers ([1]; pH 6, 25° C., 24 h): 98.1 Area % | Percentage (Area %) of the compound observed in buffers ([1]; pH 6, 25° C., Initial): 100 Area % | Percentage (Area %) of the compound observed in buffers ([1]; pH 7, 25° C., 2 h): 97.8 Area % | Percentage (Area %) of the compound observed in buffers ([1]; pH 7, 25° C., 4 h): 93.4 Area % | Percentage (Area %) of the compound observed in buffers ([1]; pH 7, 25° C., 6 h): 89.8 Area % | Percentage (Area %) of the compound observed in buffers ([1]; pH 7, 25° C., 8 h): 89.3 Area % | Percentage (Area %) of the compound observed in buffers ([1]; pH 7, 25° C., 12 h): 85.1 Area % | Percentage (Area %) of the compound observed in buffers ([1]; pH 7, 25° C., 14 h): 84.3 Area % | Percentage (Area %) of the compound observed in buffers ([1]; pH 7, 25° C., 18 h): 84.0 Area % | Percentage (Area %) of the compound observed in buffers ([1]; pH 7, 25° C., 20 h): 81.3 Area % | Percentage (Area %) of the compound observed in buffers ([1]; pH 7, 25° C., 22 h): 79.9 Area % | Percentage (Area %) of the compound observed in buffers ([1]; pH 7, 25° C., 24 h): 78.4 Area % | Percentage (Area %) of the compound observed in buffers ([1]; pH 7, 25° C., Initial): 100 Area % | Percentage (Area %) of the compound observed in buffers ([1]; pH 8, 25° C., 2 h): 92.0 Area % | Percentage (Area %) of the compound observed in buffers ([1]; pH 8, 25° C., 4 h): 81.7 Area % | Percentage (Area %) of the compound observed in buffers ([1]; pH 8, 25° C., 6 h): 77.7 Area % | Percentage (Area %) of the compound observed in buffers ([1]; pH 8, 25° C., 8 h): 71.7 Area % | Percentage (Area %) of the compound observed in buffers ([1]; pH 8, 25° C., 12 h): 63.4 Area % | Percentage (Area %) of the compound observed in buffers ([1]; pH 8, 25° C., 14 h): 60.2 Area % | Percentage (Area %) of the compound observed in buffers ([1]; pH 8, 25° C., 18 h): 54.2 Area % | Percentage (Area %) of the compound observed in buffers ([1]; pH 8, 25° C., 20 h): 51.1 Area % | Percentage (Area %) of the compound observed in buffers ([1]; pH 8, 25° C., 22 h): 47.1 Area % | Percentage (Area %) of the compound observed in buffers ([1]; pH 8, 25° C., 24 h): 44.6 Area % | Percentage (Area %) of the compound observed in buffers ([1]; pH 8, 25° C., Initial): 100 Area % | stability in bio-relevant media SGF pH 1.6 and Fasted SIF pH 6.5 ([2]; 37° C., during 24 hours): Example 2 showed instability in bio-relevant media SGF pH 1.6 and in Fasted SIF pH 6.5. | Percentage (Area %) of the compound observed in Bio-relevant media ([2]; Fasted SIF pH 6.5, 37° C., 1 h): 99.6 Area % | Percentage (Area %) of the compound observed in Bio-relevant media ([2]; Fasted SIF pH 6.5, 37° C., 2 h): 98.0 Area % | Percentage (Area %) of the compound observed in Bio-relevant media ([2]; Fasted SIF pH 6.5, 37° C., 3 h): 93.0 Area % | Percentage (Area %) of the compound observed in Bio-relevant media ([2]; Fasted SIF pH 6.5, 37° C., 4 h): 89.7 Area % | Percentage (Area %) of the compound observed in Bio-relevant media ([2]; Fasted SIF pH 6.5, 37° C., 5 h): 86.7 Area % | Percentage (Area %) of the compound observed in Bio-relevant media ([2]; Fasted SIF pH 6.5, 37° C., Initial): 100 Area % | Percentage (Area %) of the compound observed in Bio-relevant media ([2]; Fed SIF pH 5.0, 37° C., 1 h): 99.7 Area % | Percentage (Area %) of the compound observed in Bio-relevant media ([2]; Fed SIF pH 5.0, 37° C., 2 h): 99.6 Area % | Percentage (Area %) of the compound observed in Bio-relevant media ([2]; Fed SIF pH 5.0, 37° C., 3 h): 99.4 Area % | Percentage (Area %) of the compound observed in Bio-relevant media ([2]; Fed SIF pH 5.0, 37° C., 4 h): 98.7 Area % | Percentage (Area %) of the compound observed in Bio-relevant media ([2]; Fed SIF pH 5.0, 37° C., 5 h): 98.6 Area % | Percentage (Area %) of the compound observed in Bio-relevant media ([2]; Fed SIF pH 5.0, 37° C., 24 h): 97.4 Area % | Percentage (Area %) of the compound observed in Bio-relevant media ([2]; Fed SIF pH 5.0, 37° C., Initial): 100 Area % | Percentage (Area %) of the compound observed in Bio-relevant media ([2]; SGF pH 1.6, 37° C., 15): 83.9 Area % | Percentage (Area %) of the compound observed in Bio-relevant media ([2]; SGF pH 1.6, 37° C., 1 h): 99.3 Area % | Percentage (Area %) of the compound observed in Bio-relevant media ([2]; SGF pH 1.6, 37° C., 2 h): 99.3 Area % | Percentage (Area %) of the compound observed in Bio-relevant media ([2]; SGF pH 1.6, 37° C., 3 h): 96.6 Area % | Percentage (Area %) of the compound observed in Bio-relevant media ([2]; SGF pH 1.6, 37° C., 4 h): 92.9 Area % | Percentage (Area %) of the compound observed in Bio-relevant media ([2]; SGF pH 1.6, 37° C., 5 h): 92.3 Area % | Percentage (Area %) of the compound observed in Bio-relevant media ([2]; SGF pH 1.6, 37° C., 6 h): 91.1 Area % | Percentage (Area %) of the compound observed in Bio-relevant media ([2]; SGF pH 1.6, 37° C., 8 h): 90.1 Area % | Percentage (Area %) of the compound observed in Bio-relevant media ([2]; SGF pH 1.6, 37° C., 10 h): 87.2 Area % | Percentage (Area %) of the compound observed in Bio-relevant media ([2]; SGF pH 1.6, 37° C., 12 h): 85.4 Area % | Percentage (Area %) of the compound observed in Bio-relevant media ([2]; SGF pH 1.6, 37° C., 18 h): 82.4 Area % | Percentage (Area %) of the compound observed in Bio-relevant media ([2]; SGF pH 1.6, 37° C., 21 h): 81.0 Area % | Percentage (Area %) of the compound observed in Bio-relevant media ([2]; SGF pH 1.6, 37° C., Initial): 100 Area %
